Data: patent US12209073B2, “Polymorphs of a dihydroorotate dehydrogenase (DHOD) inhibitor” (KIORA PHARMACEUTICALS GmbH, priority 2022, dated 2025)
In brackets after ≈: the same amount, converted by molar mass. Entries after “also recorded” stand apart in the source; their conditions may differ.

Experiments:
[1] = Thermodynamic solubility in FaSSIF; type: physicochemical; details: for XRPD post-TS (residual solid): after thermodynamic solubility in FaSSIF
Procedure: Thermodynamic Aqueous Solubility. Aqueous solubility was determined by suspending sufficient compound in relevant media to give a maximum final concentration of ≥10 mg/ml of the parent free-form of the compound. The suspension was equilibrated at 25° C., on a Heidolph plate shaker set to 750 rpm for 24 hours. The pH of the saturated solution was then measured, and the suspension filtered through a glass fiber C filter (particle retention 1.2 μm) and diluted appropriately. Quantitation was by HPLC with reference to a standard solution of approximately 0.15 mg/ml in DMSO. Different volumes of the standard, diluted and undiluted sample solutions were injected. The solubility was calculated using the peak areas determined by integration of the peak found at the same retention time as the principal peak in the standard injection. [table] In addition to the competitive slurrying, Form A and Form B were both submitted to thermodynamic solubility measurements in FaSSIF media, as well as IDR in pH 7.4 phosphate buffer. The results are shown in Table 19 The full reports for both measurements can be found in Appendix 2—Analytical Service Reports.

[2] = Intrinsic dissolution rate (IDR) in pH 7.4 phosphate buffer; type: physicochemical; details: for XRPD post-IDR: after IDR in pH 7.4 phosphate buffer; for Dissolution rate (pH 7.4 buffer): pH 7.4 phosphate buffer
Text: In addition, the thermodynamic solubility and the IDR of the two forms was compared in selected media. In addition to the competitive slurrying, Form A and Form B were both submitted to thermodynamic solubility measurements in FaSSIF media, as well as IDR in pH 7.4 phosphate buffer. The results are shown in Table 19 The full reports for both measurements can be found in Appendix 2—Analytical Service Reports.

[3] = Gravimetric Vapor Sorption (GVS); type: physicochemical; details: for Hygroscopicity (GVS): 0-90% RH; for Hygroscopicity (GVS) / GVS mass uptake, equivalent of water / GVS mass uptake: 25° C.; for XRPD Post-GVS: after GVS isotherm; for GVS mass uptake, equivalent of water / GVS mass uptake: between 0 and 90% RH
Procedure: Gravimetric Vapor Sorption (GVS). Sorption isotherms were obtained using a SMS DVS Intrinsic moisture sorption analyzer, controlled by DVS Intrinsic Control software. The sample temperature was maintained at 25° C. by the instrument controls. The humidity was controlled by mixing streams of dry and wet nitrogen, with a total flow rate of 200 ml/min. The relative humidity was measured by a calibrated Rotronic probe (dynamic range of 1.0-100% RH), located near the sample. The weight change, (mass relaxation) of the sample as a function of % RH was constantly monitored by a microbalance (accuracy ±0.005 mg). Typically, 5-30 mg of sample was placed in a tared mesh stainless steel basket under ambient conditions. The sample was loaded and unloaded at 40% RH and 25° C. (typical room conditions). A moisture sorption isotherm was performed as outlined below (2 scans per complete cycle). The standard isotherm was performed at 25° C. at 10% RH intervals over a 0-90% RH range. Typically, a double cycle (4 scans) was carried out. Data analysis was carried out within Microsoft Excel using the DVS Analysis Suite. [table] The sample was recovered after completion of the isotherm and re-analyzed by XRPD.

[4] = Accelerated storage stability (XRPD & HPLC); type: physicochemical
Procedure: Chemical Purity Determination by HPLC. Purity analysis was performed on an Agilent HP1100/Infinity II 1260 series system equipped with a diode array detector and using OpenLAB software. The full method details are provided below in Table 12: [table] HPLC indicated the material to have a purity of 99.6% (FIG. 12A). […] The sample was left for an additional 22 days (total 30 days storage) and re-analyzed by XRPD, appearing as Form A, lacking the additional peaks previously observed (FIG. 13B). It was therefore possible that contamination of sample on the instrument in the previous 8-day timepoint was the likely cause of the additional peaks, rather than a form chance or degradation. […] (92 J/g) (FIG. 16). PLM and SEM images indicate the particles to be a series of spherical agglomerates (ca. 50 to 100 μm in diameter), which consist of small (<10 μm) plate-like crystals (FIGS. 17A-17B). HPLC analysis indicated the sample maintained a high purity of 99.5% (FIG. 18A). […] There is a small hysteresis between adsorption and desorption. The sample was unchanged by XRPD post-GVS analysis. […]

[5] = Competitive slurrying of Form A and Form B; type: physicochemical; details: competitive slurrying of Form A and Form B in a range of solvents at 5, 25 and 50° C.
Procedure: The aim of this work was to investigate the order of stability of the scaled-up Form A and Form B via competitive slurrying of the materials in a range of solvents at 5° C., 25° C. and 50° C.
The proposed solvents were aliquoted (1 ml) into HPLC vials and held at 5° C., 25° C. and 50° C. respectively, equilibrating at 300 rpm. […] The saturated solutions were allowed to equilibrate overnight.
Approximately 300 mg of Form B, prepared as described previously in Example 5, and the Form A were added to a 20 ml scintillation vial. The vial was subjected to turbula mixing for over 2 hours to ensure the mixture was homogenous. Approximately 30 mg of a mixture of Form A and Form B was added to a series HPLC vials. The vials were placed at 5, 25 and 50° C., 300 rpm. The suspensions prepared previously were filtered through a PTFE syringe directly into each vial to suspend the prepared form mixture in a saturated solution of the target solvent. Polymorph turnover was investigated by taking a 30-50 μl aliquot of the suspension and analyzing by XRPD.

pKa of PP-001 = type: physicochemical
Text: (§1) The general tested characteristics of 3-(2,3,5,6-tetrafluoro-3′-trifluoromethoxy-biphenyl-4-ylcarbamoyl)-thiophene-2-carboxylic acid (PP-001) are shown below in Table 8.

[6] = LogP (measured) of PP-001; type: physicochemical
Text: as §1

[7] = Solubility in 50 mM phosphate buffer; type: physicochemical
Text: as §1

[8] = Stability at pH 2, pH 7.4 and pH 8.5; type: physicochemical
Text: as §1

[9] = Stability in artificial gastric juice, simulated intestinal fluid and PBS; type: in vitro ADME
Text: as §1

[10] = Stability in human plasma; type: in vitro ADME
Text: as §1

Oral bioavailability = details: in vivo, depending on formulation used
Text: as §1

[11] = Solubility and solvent selection assessment; type: physicochemical
Procedure: PP-001 (ca. 20 mg, Batch #1) was treated with increasing aliquots of solvent until either a clear solution or maximum of 80 vol ([…]) of solvent was added. Samples were left for […] at 25° C., 300 rpm, after each solvent addition before observations were recorded. Where possible, samples were heated to 50° C. and further observations were taken. Solutions at 25 or 50° C. were cooled to 5° C. at 0.1° C./min, 300 rpm and held overnight. Any suspensions at 50° C. were subjected to maturation cycling between RT/50° C. (4 hours per cycle). Solvents unsuitable for heating to 50° C. or cooling to 5° C. were subjected to evaporation, antisolvent addition at RT or maturation at RT, depending on the solvent.
After 24 h, any solutions at 5° C. were subjected to evaporation at RT with the lid removed. Samples subjected to evaporation were analyzed once dry. The remaining suspensions were left for 3 days at conditions before being extracted using an SPE cartridge and frit under positive pressure filtration.

[12] = Solvent assessment for lyophilization; type: physicochemical; details: maximum of 60 vol
Procedure: Preparation and solubility of amorphous PP-001. PP-001 was treated with increasing aliquots of solvent until a maximum of 60 vol (1800 μl) was added in a HPLC vial.
Samples that formed solutions were positive pressure filtered using a PTFE syringe filter to remove any remaining solid particulates. The solutions were then flash frozen in a dry ice/acetone bath and lyophilized overnight to remove the solvent. Solids isolated post-lyophilization were analyzed by XRPD and characterized.

In the case of `O=C(Nc1c(F)c(F)c(-c2cccc(OC(F)(F)F)c2)c(F)c1F)c1ccsc1C(=O)O` [Form A, 3-(2,3,5,6-tetrafluoro-3′-trifluoromethoxy-biphenyl-4-ylcarbamoyl)-thiophene-2-carboxylic acid], the solubility thermodynamic at 24 h ([1]; FaSSIF, 25 °C, pH 6.4, fassif, thermodynamic from solid, FaSSIF, 25° C., 24 hours, read-out: Thermodynamic solubility (TS) in FaSSIF) is reported as 760 µg/mL (≈ 1590 µM), the “XRPD post-TS (residual solid)” value [1] is reported as “Unchanged, residual” and the “XRPD post-TS (residual solid)” value ([1]; listed as PP-001 Form A) is reported as “largely unchanged; also recorded: XRPD unchanged in form plus NaCl reference peaks”. For the same compound, the “XRPD post-IDR” value [2] was “Unchanged”, the “Dissolution rate (pH 7.4 buffer)” value [2] was 0.071 mg/min/cm^2 and the “Hygroscopicity (GVS)” value ([3]; listed as PP-001 Form A) was “mass uptake. Sample is non- hygroscopic”. For the same compound, the “XRPD Post-GVS” value ([3]; listed as PP-001 Form A) was “Unchanged”, the “GVS mass uptake, equivalent of water” value [3] was 0.03 mol and the GVS mass uptake ([3]; listed as PP-001 Form A) was 0.12 wt %. The XRPD after storage ([4]; 25° C./97% RH, 8 days, listed as PP-001 Form A) was “a small peak was gained at 8.1 2θ angle and a loss of a small peak at 17.6 2θ angle; also recorded: Small peak gain at 8.1 2Θ and a loss of small peaket 17.6”, the XRPD after storage ([4]; 40° C./75% RH, 8 days, listed as PP-001 Form A) was “Unchanged” and the “Relative thermodynamic stability of the forms” value [5] was “thermodynamically more stable form; also recorded: preferred form over all conditions and solvents tested”.
In the case of `O=C(Nc1c(F)c(F)c(-c2cccc(OC(F)(F)F)c2)c(F)c1F)c1ccsc1C(=O)O` [Form B, 3-(2,3,5,6-tetrafluoro-3′-trifluoromethoxy-biphenyl-4-ylcarbamoyl)-thiophene-2-carboxylic acid], the “Thermodynamic solubility (TS) in FaSSIF” value ([1]; FaSSIF, 25° C., 24 hours) is reported as 930 µg/mL, the “XRPD post-TS (residual solid)” value [1] is reported as “Unchanged, residual” and the “XRPD post-IDR” value [2] is reported as “Unchanged”. The “Dissolution rate (pH 7.4 buffer)” value [2] was 0.15 mg/min/cm^2, the “Hygroscopicity (GVS)” value [3] was “non-hygroscopic” and the “XRPD Post-GVS” value [3] was “unchanged”. For the same compound, the “XRPD Post-GVS” value ([3]; listed as PP-001 Form B) was “Unchanged”, the GVS mass uptake [3] was 0.10 wt % and the “GVS mass uptake, equivalent of water” value [3] was 0.03 mol. The GVS mass uptake ([3]; listed as PP-001 Form B) was 0.10 wt %, the “HPLC purity after storage” value ([4]; 25° C./97% RH, 7 days) was 99.4% and the XRPD after storage ([4]; 25° C./97% RH, 7 days) was “no observable changes”. For the same compound, the XRPD after storage ([4]; 25° C./97% RH, 7 days, listed as PP-001 Form B) was “Unchanged”, the “HPLC purity after storage” value ([4]; 40° C./75% RH, 7 days) was 99.6% and the XRPD after storage ([4]; 40° C./75% RH, 7 days) was “no observable changes”. For the same compound, the XRPD after storage ([4]; 40° C./75% RH, 7 days, listed as PP-001 Form B) was “Unchanged”.
With `O=C(Nc1c(F)c(F)c(-c2cccc(OC(F)(F)F)c2)c(F)c1F)c1ccsc1C(=O)O` [PP-001, 3-(2,3,5,6-tetrafluoro-3′-trifluoromethoxy-biphenyl-4-ylcarbamoyl)-thiophene-2-carboxylic acid] the pKa (pKa of PP-001) was 2.23, the logP [6] was 4.19 and the solubility ([7]; pH 4, aqueous buffer) was 1.4 µg/mL (≈ 2.92 µM). For the same compound, the solubility ([7]; pH 7.4, aqueous buffer) was 854 µg/mL (≈ 1780 µM), the solubility ([7]; pH 9, aqueous buffer) was 833 µg/mL (≈ 1740 µM) and the “Stability (stable for)” value ([8]; pH 2 (HCl)) was “Stable for >16 h at pH 2 (HCl), pH 7.4 (trisbuffer),”. For the same compound, the “Stability (stable for)” value ([8]; pH 7.4 (tris buffer)) was “Stable for >16 h at pH 2 (HCl), pH 7.4 (trisbuffer),”, the “Stability (stable for)” value ([8]; pH 8.5 (tris buffer)) was “Stable for >16 h at pH 2 (HCl), pH 7.4 (trisbuffer),” and the “Stability (stable for)” value ([9]; PBS pH 7.4) was “Stable for >6 h in artificial gastric juice, simulated”. For the same compound, the “Stability (stable for)” value ([9]; artificial gastric juice) was “Stable for >6 h in artificial gastric juice, simulated”, the “Stability (stable for)” value ([9]; simulated intestinal fluid) was “Stable for >6 h in artificial gastric juice, simulated” and the “Stability (stable for)” value [10] was “Stable for >6 h in artificial gastric juice, simulated”. The bioavailability (Oral bioavailability) was 15 to 30%, the Solubility in solvents ([11]; 25° C., dissolution in volumes <80 vol, in 15 of the solvents tested) was “good solubility” and the Solubility in solvents ([11]; 50° C., IPA, 1-propanol, ACN, MeOH:water (3%), MeOH:water (5%), EtOH:water (5%), IPA:water (5%) and IPA:water (25%)) was “Clear solutions”. The Solubility in solvents ([11]; aprotic, polar solvents such as THF, DMSO and acetone) was “higher solubility”, the Solubility in solvents ([11]; heptane, toluene, chloroform and water, up to 80 vol, heated to 50° C.) was “remained suspensions” and the Solubility for lyophilization ([12]; 1,4-dioxane) was “soluble”. For the same compound, the Solubility for lyophilization ([12]; THF:water (70:30)) was “soluble”.
